Data reported in PubChem BioAssay (NCI).
“And” between values parts separate entries of the source, which are not always exact repeats. Equal values may be shown once.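 All cell lines were grown in 96-well plates and treated with compound for 48 hours. GI50: concentration for 50% inhibition of growth. TGI is the concentration that stops growth completely.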

What was measured:
Assay in all cases: DTP human tumour cell line panel, 48 h
[1] = tested on: HOP-92 NSCLC
[2] = tested on: HOP-62 NSCLC
[3] = tested on: OVCAR-3 ovarian
[4] = tested on: OVCAR-8 ovarian
[5] = tested on: DU-145 prostate
[6] = tested on: SF-539 CNS
[7] = tested on: NCI-H460 lung
[8] = tested on: CCRF-CEM leukemia
[9] = tested on: OVCAR-4 ovarian
[10] = tested on: SK-MEL-2 melanoma

SMILES | TGI [1] | GI50 [2] [nM] | TGI [2] | GI50 [3] [nM] | TGI [3] | GI50 [4] [µM] | TGI [4] | GI50 [5] [nM] | TGI [5] | GI50 [6] [nM] | TGI [6] | GI50 [7] [nM] | TGI [7] | GI50 [8] [µM] | TGI [8] | GI50 [9] [µM] | TGI [9] | GI50 [10] [nM] | TGI [10] | GI50 [1] [nM]
COc1cc2c(c(OC)c1OC)-c1ccc(OC)c(=O)cc1[C@@H](NC(=O)CCl)CC2 | 7.2 µM | < 10 | 10.2 µM | < 10 | < 0.01 µM | < 0.01 | > 33.6 µM | < 10 | < 0.01 µM | < 10 | 23.7 µM | < 10 | 0.585 µM | < 0.01 | > 33.3 µM | < 0.01 | > 100 µM | < 10 | 10.3 µM | –
C/C(=C\c1ccn(-c2ccc(N)c(C(F)(F)F)c2)n1)[C@@H]1C[C@@H]2O[C@]2(C)CCC[C@H](C)[C@H](O)[C@@H](C)C(=O)C(C)(C)[C@@H](O)CC(=O)O1 | 23.9 µM | 21.2 | > 20.3 µM | 9.97 | 1.46 µM | 0.0177 | > 28.1 µM | 11.3 | 0.0969 µM | 9.84 | 0.593 µM | 8.48 | 6.21 µM | 0.0117 | > 32.5 µM | 0.132 | > 32.5 µM | 24.1 | 10.4 µM | 16.1
C=C(C)C(=O)NC(N)=NC#N | 33.7 µM and 63.1 µM | 206000 | 362 µM | 129000 | 259 µM | 119 | > 90 µM and 287 µM | 145000 | 291 µM | 154000 | 73.3 µM and 290 µM | 163000 | 306 µM | – | 59.9 µM and 60.5 µM | 140 | 35.7 µM and 295 µM | 134000 | 261 µM | 26700
CN(C)CC/C=C1\c2ccccc2Sc2ccc(Cl)cc21 | 3.39 µM and 18.7 µM | 1940 | 5.44 µM and 28 µM | 3990 | 13.5 µM and 26.8 µM | 1.99 | 4.44 µM and 32.8 µM | 6380 | 18.6 µM and 29.7 µM | 3610 | 11.2 µM and 36.2 µM | 2020 | 3.95 µM and 28.8 µM | 3.36 | 15.4 µM and 25.2 µM | 3.72 | 13.9 µM and 28.5 µM | 1950 | 3.71 µM and 31.7 µM | 379
CC(C)C1C(=O)N2CCCC2C2(O)OC(NC(=O)C3C=C4c5cccc6[nH]cc(c56)CC4N(C)C3)(C(C)C)C(=O)N12 (configuration not stated) | 30.1 µM | – | > 100 µM | – | 80.6 µM | – | 52.9 µM | – | > 100 µM | – | 52.4 µM | – | 39.2 µM | – | 91.3 µM | – | 47.9 µM | – | 42.4 µM | –
COc1cc2c(c(OC)c1OC)-c1ccc([O-])c(=O)cc1[C@@H](NC(C)=O)CC2.COc1cc2c(c(OC)c1OC)-c1ccc([O-])c(=O)cc1[C@@H](NC(C)=O)CC2.[Cu+2] | > 100 µM | 5670 | > 100 µM | 2160 | 5.19 µM | 3.77 | 34.5 µM | 2700 | 7.21 µM | 1880 | 4.53 µM | 3290 | 15.7 µM | 3.33 | 19 µM | 4.91 | > 100 µM | 3590 | > 100 µM | 17500
COc1ccc(-c2cc(-c3ccc(Nc4nc(Nc5ccc(Cl)cc5)nc(Nc5ccc(Cl)cc5)n4)cc3)no2)cc1 | 6.26 µM | 20500 | 60.5 µM | 11200 | 38.9 µM | 12.6 | 55.3 µM | 11400 | 36.3 µM | 17200 | 57.8 µM | 5580 | 25.2 µM | 3.27 | 11.6 µM | 14.7 | > 100 µM | 17100 | 57.5 µM | 1910
CCCCCCCCCCCCCCCCC1=CC(=O)C=C(OC)C1=O | > 100 µM | – | > 100 µM | – | > 100 µM | – | > 100 µM | – | > 100 µM | – | > 100 µM | – | > 100 µM | – | > 100 µM | – | > 100 µM | – | > 100 µM | –
Nc1nc(N)c2nc(CNc3ccc(C(=O)CC(CCC(=O)O)C(=O)O)cc3)cnc2n1 (configuration not stated) | > 100 µM | 127 | > 100 µM | > 100000 | > 100 µM | 0.166 | > 100 µM | 2240 | > 100 µM | 176 | > 100 µM | 127 | > 100 µM | 0.0562 | > 100 µM | – | > 100 µM | > 100000 | > 100 µM | > 100000
COc1ccc(-c2coc3ncnc(N)c23)cc1 | > 25 µM | > 25000 | > 25 µM | > 25000 | > 25 µM | > 25 | > 25 µM | > 25000 | > 25 µM | > 25000 | > 25 µM | > 25000 | > 25 µM | > 25 | > 25 µM | > 25 | > 25 µM | > 25000 | > 25 µM | > 14000
O=S(=O)(NCCNc1cc(-c2cn(-c3ccccc3)nc2-c2cccc(O)c2)ccn1)c1ccc(C(F)(F)F)cc1 | 6.39 µM | 2560 | 9.14 µM | 2200 | 5.58 µM | 4.91 | 26.1 µM | 4440 | 15.9 µM | 1590 | 3.48 µM | 3230 | 10.1 µM | 3.27 | 8.05 µM | 2.85 | 16.9 µM | 2360 | 7.22 µM | 1970
O=c1oc2ccc(Cl)cc2c(=O)n1-c1ccc(Cl)cc1F | 0.49 µM | 622 | 2.86 µM | 355 | 13.8 µM | 0.721 | > 21.7 µM | 846 | 24.7 µM | 462 | 3.7 µM | 412 | 11 µM | 1.7 | 10.4 µM | 0.377 | 78.9 µM | 370 | 2.26 µM | 143
COc1cc(N2CCC(N3CCN(C)CC3)CC2)ccc1Nc1ncc(Cl)c(Nc2ccccc2P(C)(C)=O)n1 | 2.41 µM | 797 | > 32 µM | 2150 | 38.2 µM | 5.05 | > 100 µM | 933 | 20.5 µM | 2100 | 7.5 µM | 2470 | > 40 µM | 4.41 | 98 µM | 1.3 | > 47.6 µM | 2670 | 30.6 µM | 400
